{"source": "ChEMBL document CHEMBL1150805", "about": "“New cytotoxic isomalabaricane triterpenes from the sponge Jaspis species” (J Nat Prod, 2001)", "key": {"Malme-3M": {"system": "Malme-3M", "assay": "Antiproliferative activity against human MALME-3M cells", "assay_type": "functional, cell-based"}, "MOLT-4": {"system": "MOLT-4", "assay": "Antiproliferative activity against human MOLT4 cells", "assay_type": "functional, cell-based"}}}
{"molecule": "CC(=O)O[C@@H](CC=C(C)C)/C(C)=C/C=C/C(C)=C1\\C(=O)C[C@H]2[C@@]3(C)CC[C@@H](O)[C@](C)(CO)[C@@H]3CC[C@]12C", "note": "(mixture of isomers)", "values": [{"measurement": "IC50", "setting": "Malme-3M", "value": 0.23, "unit": "µg/mL"}, {"measurement": "IC50", "setting": "MOLT-4", "value": 4.11, "unit": "µg/mL"}]}
{"molecule": "CC(=O)O[C@H]1CC[C@@]2(C)[C@@H](CC[C@]3(C)/C(=C(C)/C=C/C=C(\\C)[C@@H](O)CC=C(C)C)C(=O)C[C@@H]23)[C@@]1(C)CO", "note": "(mixture of isomers)", "values": [{"measurement": "IC50", "setting": "Malme-3M", "value": 0.11, "unit": "µg/mL"}, {"measurement": "IC50", "setting": "MOLT-4", "value": 1.62, "unit": "µg/mL"}]}
{"molecule": "CC(=O)O[C@@H](CC=C(C)C)/C(C)=C/C=C/C(C)=C1\\C(=O)C[C@H]2[C@@]3(C)CC[C@@H](OC(C)=O)[C@](C)(CO)[C@@H]3CC[C@]12C", "note": "(mixture of isomers)", "values": [{"measurement": "IC50", "setting": "Malme-3M", "value": 1.2, "unit": "µg/mL"}, {"measurement": "IC50", "setting": "MOLT-4", "value": 16.6, "unit": "µg/mL"}]}
{"molecule": "CC(=O)O[C@@H](CC=C(C)C)/C(C)=C/C=C/C(C)=C1\\C(=O)C[C@H]2[C@@]3(C)CC[C@H](OC(C)=O)[C@](C)(CO)[C@@H]3CC[C@]12C", "note": "(mixture of isomers)", "values": [{"measurement": "IC50", "setting": "Malme-3M", "value": 2.27, "unit": "µg/mL"}, {"measurement": "IC50", "setting": "MOLT-4", "value": 19.5, "unit": "µg/mL"}]}
